From US9611248B2, “Chemical compounds” (Syngenta Participations AG, priority 2013, dated 2017)

What follows are compounds tested on a variety of test species (assay: Post-emergence herbicidal activity). Details: rate 250 g/ha, evaluated after 13 days.
Format: in vivo
Set-up: key to ABUTH (Abutilon theophrasti) damage score / AMARE (Amaranthus retroflexus) damage score / ALOMY (Alopecurus myosuroides) damage score / ECHCG (Echinochloa crus-galli) damage score / ZEAMX (Zea mays) damage score / SOLNI (Solanum nigrum) damage score: 0 = no damage to plant, 5 = total damage to plant
Outline: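 Plants grown for 8 days in pots were sprayed post-emergence with compound in acetone/water (50:50) containing 0.5% Tween 20. They were kept in a glasshouse at 24/16 °C day/night, 14 h light, 65% humidity, watered twice daily. Damage was scored after 13 days (0 none to 5 total).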

Compound	ABUTH (Abutilon theophrasti) damage score	ALOMY (Alopecurus myosuroides) damage score	AMARE (Amaranthus retroflexus) damage score	ECHCG (Echinochloa crus-galli) damage score	SETFA (Setaria faberi) damage score	ZEAMX (Zea mays) damage score
C=C(C)COc1cnc(N2C(=O)C(C)=C(OC)C2O)cc1C(F)(F)F (stereo not drawn) [AD77]	5	3	5	1	4	0

Same assay, conditions: rate 1000 g/ha, evaluated after 13 days

Compound	ABUTH (Abutilon theophrasti) damage score	ALOMY (Alopecurus myosuroides) damage score	AMARE (Amaranthus retroflexus) damage score	ECHCG (Echinochloa crus-galli) damage score	SETFA (Setaria faberi) damage score	ZEAMX (Zea mays) damage score
CCc1cc(N2C(=O)C(C)=C(OC)C2O)ncc1-c1ccc(C)c([N+](=O)[O-])c1 (stereo not drawn) [AD103]	4	3	5	4	4	1
CCCOc1cnc(N2C(=O)C(C)=C(OC)C2O)cc1C(F)(F)F (stereo not drawn) [AD72]	5	5	5	5	5	2
COC1=C(C)C(=O)N(c2cc(Cl)c(Br)cn2)C1O (stereo not drawn) [AD69]	0	2	4	3	5	1
COC1=C(C)C(=O)N(c2ccc(OC(F)(F)F)cn2)C1O (stereo not drawn) [AD47]	5	3	5	3	4	0
COC1=C(C)C(=O)N(c2cc(C(F)(F)F)c(-c3ccccc3)cn2)C1O (stereo not drawn) [AD128]	5	3	5	5	5	2
CCc1cc(N2C(=O)C(C)=C(OC)C2O)ncc1-c1ccccc1OC (stereo not drawn) [AD100]	4	0	5	0	4	1
CCc1cc(N2C(=O)C(C)=C(OC)C2O)ncc1-c1cccc(F)c1 (stereo not drawn) [AD108]	5	3	5	3	5	0
COC1=C(C)C(=O)N(c2cc(N3CCCCC3)ncn2)C1O (stereo not drawn) [CD1, 2-hydroxy-3-methoxy-4-methyl-1-[6-(1-piperidyl)pyrimidin-4-yl]-2H-pyrrol-5-one]	0	0	0	0	0	0
COC1=C(C)C(=O)N(c2cc(C(F)(F)F)c(-c3ccc(F)cc3F)cn2)C1O (stereo not drawn) [AD131]	5	2	5	4	4	1
CC1=C(Cl)C(O)N(c2nccc(C(C)(C)C)n2)C1=O (racemic) [DA1]	4	4	3	4	5	0
COC1=C(Cl)C(O)N(c2cc(C(C)(C)C)ccn2)C1=O (stereo not drawn) [AF1]	5	2	5	4	4	1
COC(=O)c1cnc(N2C(=O)C(C)=C(OC)C2O)cc1C(F)(F)F (stereo not drawn) [AD37]	4	3	5	3	2	0
COC1=C(Cl)C(O)N(c2cc(C(C)(F)F)ccn2)C1=O (stereo not drawn) [AF3]	5	3	5	5	5	1
COC1=C(C)C(=O)N(c2cc(C(C)(C)CCl)c(Cl)nn2)C1O (stereo not drawn) [BD4]	5	4	4	4	5	0
COC1=C(C)C(=O)N(c2cc(C(C)(C)C)c(-c3ccc(F)cc3)nn2)C1O (stereo not drawn) [BD9]	2	3	5	2	4	1
COC1=C(C)C(=O)N(c2cc(C(C)F)ccn2)C1O (stereo not drawn) [AD18]	4	3	1	4	1	0
CC1=C(Cl)C(O)N(c2nccc(C(F)(F)F)c2F)C1=O (stereo not drawn) [AA4]	1	1	1	0	1	2
COC1=C(C)C(=O)N(c2cc(C(F)(F)F)c(/C(C)=C\C#N)cn2)C1O (stereo not drawn) [AD58, (Z)-3-[6-(2-hydroxy-3-methoxy-4-methyl-5-oxo-2H-pyrrol-1-yl)-4-(trifluoromethyl)-3-pyridyl]but-2-enenitrile]	5	4	5	5	5	2
COC1=C(Cl)C(=O)N(c2cc(C(C)(C)C)ncn2)C1O (racemic) [CF1]	4	1	2	4	4	1
CCOc1cnc(N2C(=O)C(C)=C(OC)C2O)cc1C(F)(F)F (stereo not drawn) [AD55]	5	5	5	5	5	3
CCOC(=O)c1cnc(N2C(=O)C(C)=C(Cl)C2O)cc1Cl (stereo not drawn) [AA47]	1	1	0	2	3	1
CCc1cc(N2C(=O)C(C)=C(OC)C2O)ncc1-c1ccccc1C (stereo not drawn) [AD107]	5	2	5	2	3	1
COC1=C(C)C(=O)N(c2cc(C)c(-c3ccccc3)cn2)C1O (stereo not drawn) [AD63]	5	3	5	3	5	1
COC1=C(C)C(=O)N(c2cc(C(F)(F)F)c(-c3ccc(F)cc3)cn2)C1O (stereo not drawn) [AD59]	5	4	5	4	5	1
CC1=C(Cl)C(O)N(c2cc(C#N)ccn2)C1=O (stereo not drawn) [AA20]	1	1	0	1	1	0
CCOC(=O)c1cnc(N2C(=O)C(C)=C(OC)C2O)cc1Cl (stereo not drawn) [AD68]	3	1	5	4	5	1
CCN(CC)C(=O)c1cnc(N2C(=O)C(C)=C(OC)C2O)cc1C(F)(F)F (stereo not drawn) [AD92]	5	4	4	5	4	3
COC1=C(C)C(=O)N(c2cc(C)c(Cl)nn2)C1O (stereo not drawn) [BD11]	4	2	2	1	2	0
COC1=C(C)C(=O)N(c2cc(C(C)C)c(OC)nn2)C1O (stereo not drawn) [BD5]	5	5	5	5	5	3
